# Test results reported in the supplement of paper PMC13380429.
# How the values were obtained:
# Conditions in all cases: 72 h
# [1] = tested on: Caco-2; assay: cell viability relative to DMSO; higher = less toxic
# [2] = tested on: Calu-3; assay: as above
# [3] = tested on: HepG2; assay: as above
# [4] = tested on: Vero E6; assay: as above
# [5] = tested on: Caco-2; assay: relative viability EC50 (midpoint between 100% and the lowest measured viability); higher = less toxic
# [6] = tested on: Calu-3; assay: as above
# [7] = tested on: HepG2; assay: as above
# [8] = tested on: Vero E6; assay: as above
# [9] = tested on: Caco-2; assay: drug sensitivity score (DSS) for viability; higher = more toxic; extreme values may be limits of the assay
# [10] = tested on: Calu-3; assay: as above
# [11] = tested on: HepG2; assay: as above
# [12] = tested on: Vero E6; assay: as above
# [13] = tested on: U2OS; assay: cell viability relative to DMSO; higher = less toxic
# [14] = tested on: U2OS; assay: relative viability EC50 (midpoint between 100% and the lowest measured viability); higher = less toxic
# [15] = tested on: U2OS; assay: drug sensitivity score (DSS) for viability; higher = more toxic; extreme values may be limits of the assay
Compound,cell viability ([1]; 1 nM) [%],cell viability ([1]; 10 nM) [%],cell viability ([1]; 100 nM) [%],cell viability ([1]; 1000 nM) [%],cell viability ([1]; 10000 nM) [%],cell viability ([2]; 1 nM) [%],cell viability ([2]; 10 nM) [%],cell viability ([2]; 100 nM) [%],cell viability ([2]; 1000 nM) [%],cell viability ([2]; 10000 nM) [%],cell viability ([3]; 1 nM) [%],cell viability ([3]; 10 nM) [%],cell viability ([3]; 100 nM) [%],cell viability ([3]; 1000 nM) [%],cell viability ([3]; 10000 nM) [%],cell viability ([4]; 1 nM) [%],cell viability ([4]; 10 nM) [%],cell viability ([4]; 100 nM) [%],cell viability ([4]; 1000 nM) [%],cell viability ([4]; 10000 nM) [%],relative viability EC50 [5] [µM],relative viability EC50 [6] [µM],relative viability EC50 [7] [µM],relative viability EC50 [8] [µM],drug sensitivity score [9],drug sensitivity score [10],drug sensitivity score [11],drug sensitivity score [12],cell viability ([13]; 1 nM) [%],cell viability ([13]; 10 nM) [%],cell viability ([13]; 100 nM) [%],cell viability ([13]; 1000 nM) [%],cell viability ([13]; 10000 nM) [%],relative viability EC50 [14] [µM],drug sensitivity score [15]
Cn1cc(-c2ccc3ncc(Cc4ccc5ncccc5c4)n3n2)cn1 [NVP-BVU972],96.2,99.2,93.8,97.8,76.4,95.9,100,98.6,101,80.8,105,107,87.2,35.8,15.6,103,100,103,108,87.8,> 10,> 10,0.404,> 10,1.2,0.5,13.6,0,,,,,,,
CN(C)CC(c1ccc(O)cc1)C1(O)CCCCC1 (configuration not stated) [desvenlafaxine],105,102,99.6,98.2,99.2,98.8,110,97.3,109,98.7,,,,,,101,97.2,97.5,92.6,94.3,> 10,> 10,,> 10,0,0,,0,99.1,99.7,96.5,97.5,94.2,> 10,0
C=C(CC)C(=O)c1ccc(OCC(=O)O)c(Cl)c1Cl [etacrynic-acid],93.4,100,96.2,84.9,97,90.3,94,97.5,90.5,106,99.4,110,105,100,86.2,,,,,,> 10,> 10,> 10,,0,0,0.1,,98.7,101,97.8,102,103,> 10,0
Cc1cn([C@H]2O[C@@H](CO)[C@H](O)[C@H]2F)c(=O)[nH]c1=O [clevudine],102,105,94.4,108,87.5,90.3,106,106,97.9,99.3,105,92.7,104,95.2,97.1,,,,,,> 10,> 10,> 10,,0,0,0,,92.4,102,101,98.2,97.2,> 10,0
